Test results as given in patent publication US20260008801A1, “BIO-BASED SURFACTANTS DERIVED FROM CARBOHYDRATES” (COÖPERATIE KONINKLIJKE COSUN U.A., priority 2022, published 2026).
Read-outs that look alike come from different tables or passages of the source.

Experiments:
Assay type in all cases: physicochemical
[1] = Solubility in water (excess of compound in 4 ml demi water); conditions: for Solubility: Table E5.2, water; for Solubility (%): Table E8
Procedure: Solubility is preferably solubility in aqueous solution, more preferably solubility in water, most preferably solubility in demineralised water. A skilled person knows how to assess such solubility.
Solubility in water was determined by preparing mixtures of an excess of compound dispersed in 4 ml demi water using a vortex at maximum speed for 1 min. […] 1 ml of the mixture was concentrated in vacuo to yield a solid. The mass of the solid was determined in mg to calculate the solubility in percentage by dividing by ten.

[2] = Foaming power and stability, Ultra-Turrax, 0.4% aq. surfactant; conditions: for Foamability (mL) after (min) 1 / Foamability (mL) after (min) 5 / Foamability (mL) after (min) 10: Table E5.2; for Foamability (mL) after (min) 1: foam volume after 1 min; for Foamability (mL) after (min) 5: foam volume after 5 min; for Foamability (mL) after (min) 10: foam volume after 10 min; for Foamability 1 min / Foamability 5 min / Foamability 30 min: Table E8; for Foamability 1 min: after 1 min; for Foamability 5 min: after 5 min; for Foamability 30 min: after 30 min
Procedure: Foaming power was also tested at room temperature with 5 mL of 0.4% aq. surfactant (20 mg) solution in a 50 mL measuring cylinder. After performing the Ultra-Turrax (a registered trademark for a high-performance dispersing instrument) for 20 seconds (8000 rpm), the initial height of the foam was measured for foam height. (volume in mL). Every time step of, 1, 3, 5, 10, 30, 60 minutes was noted. In addition, after 24 hours the stability was checked. Particularly, foaming power and stability of the surfactants were performed using an IKA Ultra-Turrax T25 with an 18 G dispersing element. At room temperature, an aqueous solution of 5 mL 0.4% surfactant in a 50 mL measuring cylinder (2.20 cm diameter) was mixed with the Ultra-Turrax for 20 seconds at 8000 rpm. The foam height (volume in mL) was denoted for 0, 1, 3, 5, 10, 30, 60 min and 24 hours. In addition, after 24 hours the stability was checked.

[3] = Foaming abilities, 1% compound solutions shaken by hand; set-up: key to FOAM: −: no foam formation; +: low foam formation; ++: moderate foam formation; +++: strong foam formation
Procedure: Foaming abilities were evaluated at room temperature by shaking 1% compound solutions (2 ml) of pH 3, 7, and 12 by hand for 10 s. The pH of each solution was assessed with a pH meter at room temperature. […] The foam heights at the initial time were compared to one another after which the foaming abilities were classified according to no foam formation (−), low foam formation (+), moderate foam formation (++), and strong foam formation (+++).

[4] = Surface tension measurements, Wilhelmy plate (surface tension, CMC)
Procedure: Surface tension measurements were performed with a Biolin Scientific Sigma701 automatic tension meter equipped with a Wilhelmy plate made of platinum (±0.5 mN/m). […] The number of experimental points is related to the compound's/surfactant's solubility and available quantity. All compound/surfactant solutions were allowed to stand 12 h before being measured. The platinum plate was thoroughly cleaned with demi water and flame-dried before each measurement. The CMC of each compound/surfactant was determined at the minimum of a breakpoint of a conventional plot of surface tension versus compound/surfactant concentration. DCMC was obtained by acquiring the surface tension at the CMC. The pC20 value was determined by taking the minus log of the concentration compound/surfactant at a surface tension of 52 mN/m.

[5] = Table E5, room temperature, pH 7
[6] = Table E6, N-oxide compounds, in Salt form
[7] = Table E4, room temperature, pH 7
[8] = Table E2, galactaric acid amides
[9] = Table E2, room temperature, pH 7

CCCCCCN(C)C[C@H](O)[C@@H](O)[C@@H](O)[C@H](O)C(=O)O [Compound 30, N-methyl-N-hexyl-D-galacturonic acid amine]
SOLUBILITY (H2O) ([1]; Table E5): 40% | Solubility [1]: 40% | Foamability (mL) after (min) 1 [2]: 0.2 mL | Foamability (mL) after (min) 5 [2]: 0 mL | Foamability (mL) after (min) 10 [2]: 0 mL | FOAM ([3]; Table E5, PH > 7): ++ | CMC (%) ([4]; Table E5): 2% | SURFACE TENSION [4, 5]: 60.6 mN/m | Surface tension (nM/m) ([4]; Table E5.2): 42.1 mN/m

CCCCCCCC[N+](C)([O-])C[C@H](O)[C@@H](O)[C@@H](O)CO (stereo partly drawn) [Compound 39, N-methyloctyl-L-arabinonamine oxide]
SOLUBILITY (H2O) [1, 6]: 11% | Solubility (%) [1]: 11% | Foamability 1 min [2]: 2 mL | Foamability 5 min [2]: 2 mL | Foamability 30 min [2]: 0.5 mL | FOAM ([3]; Table E6, in Salt form): ++ | CMC (%) ([4]; Table E6, in Salt form): 0.55% | SURFACE TENSION ([4]; Table E6, in Salt form): 27.734 mN/m | CMC (%) ([4]; Table E8): 0.55% | Surface tension (nM/m) ([4]; Table E8): 27.73 mN/m

CCCCCCCCCCCCNC(=O)[C@H](O)[C@@H](O)[C@@H](O)[C@H](O)C(=O)O [Compound 13]
solubility in water, in words [1]: relatively low | FOAM ([3]; Table E2): −

CCCCCCCCCCN(C)C[C@H](O)[C@@H](O)[C@@H](O)[C@H](O)C(=O)O [Compound 25b, N-methyldecyl-D-galactaric acid amine]
Solubility [1]: 2% | Foamability (mL) after (min) 1 [2]: 6 mL | Foamability (mL) after (min) 5 [2]: 6 mL | Foamability (mL) after (min) 10 [2]: 5 mL | CMC (%) ([4]; Table E5.2): 0.06% | Surface tension (nM/m) ([4]; Table E5.2): 32.85 mN/m

CC(C)CNC(=O)[C@H](O)[C@@H](O)[C@@H](O)CO [Compound 05, 1-(N-isobutyl)-L-arabinonamide]
solubility in water, in words [1]: soluble | SOLUBILITY (H2O) ([1]; Table E1, arabinonamides): Yes | FOAM ([3]; Table E1): − | stable surface tension value at maximal concentration (micelle formation) ([4]; maximal concentration in water, means no micelles were formed): do not reach a stable surface tension value

CCCCCCCCCCNC[C@H](O)[C@@H](O)[C@@H](O)[C@H](O)C(=O)O [Compound 33b, N-decyl-D-galacturonic acid amine]
Solubility [1]: 0.55%

CCCCCCN(C)C[C@H](O)[C@@H](O)[C@@H](O)CO [Compound 23, N-methyl-N-hexyl-L-arabinamine]
solubility in H2O [1]: 30% | SOLUBILITY (H2O) ([1]; Table E4): 30% | Solubility [1]: 30% | Foamability (mL) after (min) 1 [2]: 2 mL | Foamability (mL) after (min) 5 [2]: 0.2 mL | Foamability (mL) after (min) 10 [2]: 0 mL | FOAM ([3]; Table E4, pH > 7): + | CMC (%) ([4]; Table E4): 2% | SURFACE TENSION [4, 7]: 31.4 mN/m | CMC (%) ([4]; Table E5.2): 2% | Surface tension (nM/m) ([4]; Table E5.2): 31.4 mN/m

CCCCCCCCCCCC[N+](C)([O-])C[C@H](O)[C@@H](O)[C@@H](O)[C@H](O)C(=O)O (stereo partly drawn) [Compound 43, N-methyl-N-dodecyl-D-galacturonic acid amine oxide]
SOLUBILITY (H2O) [1, 6]: 7% | Solubility (%) [1]: 7% | Foamability 1 min [2]: 5 mL | Foamability 5 min [2]: 4 mL | Foamability 30 min [2]: 4 mL | FOAM ([3]; Table E6, in Salt form): +++ | CMC (%) ([4]; Table E6, in Salt form): 0.058% | SURFACE TENSION ([4]; Table E6, in Salt form): 25.551 mN/m | CMC (%) ([4]; Table E8): 0.058% | Surface tension (nM/m) ([4]; Table E8): 25.55 mN/m

CCCCCC[N+](C)([O-])C[C@H](O)[C@@H](O)[C@@H](O)CO (stereo partly drawn) [Compound 38, N-methylhexyl-L-arabinonamine oxide]
SOLUBILITY (H2O) [1, 6]: 19% | Solubility (%) [1]: 19% | Foamability 1 min [2]: 0.5 mL | Foamability 5 min [2]: 0 mL | Foamability 30 min [2]: 0 mL | FOAM ([3]; Table E6, in Salt form): − | CMC (%) ([4]; Table E6, in Salt form): 1.60% | SURFACE TENSION ([4]; Table E6, in Salt form): 49.275 mN/m | CMC (%) ([4]; Table E8): 1.30% | Surface tension (nM/m) ([4]; Table E8): 53.59 mN/m

CCCCCCCCCCCCNC[C@H](O)[C@@H](O)[C@@H](O)[C@H](O)C(=O)O [Compound 34, N-dodecyl-D-galacturonic acid amine, reference compound]
SOLUBILITY (H2O) ([1]; Table E5): 0.3% | Solubility [1]: 0.3% | FOAM ([3]; Table E5, pH not given): − | CMC (%) ([4]; Table E5): 0.1% | SURFACE TENSION [4, 5]: 30.7 mN/m

CCCCCCCCCCCCOS(=O)(=O)[O-].[Na+] [SLS, reference compound]
concentration at which the surface tension is reached [4]: 0.02%

CCCCCCNC(=O)[C@H](O)[C@@H](O)[C@@H](O)[C@H](O)C(=O)O [Compound 10]
solubility in H2O [1]: 2.5% | SOLUBILITY (H2O) [1, 8]: ~2.5% | FOAM ([3]; Table E2): − | SURFACE TENSION [4, 9]: 49.43 mN/m

CCCCNC(=O)[C@H](O)[C@@H](O)[C@@H](O)[C@H](O)C(=O)O [Compound 09]
solubility in H2O [1]: 6% | SOLUBILITY (H2O) [1, 8]: >6% | FOAM ([3]; Table E2): − | SURFACE TENSION [4, 9]: 50.78 mN/m

CCCCCCCCCCCCN(C)C[C@H](O)[C@@H](O)[C@H](O)[C@H](O)CO [Compound 50, 1-(N-methyl-N-dodecyl)-D-glucosamine]
solubility in H2O [1]: 0%

O=C(O)CCCCCCCCCCNC[C@H](O)[C@@H](O)[C@@H](O)CO [Compound 29]
SOLUBILITY (H2O) ([1]; Table E4): 1% | FOAM ([3]; Table E4, pH not given): − | CMC (%) ([4]; Table E4): 1% | SURFACE TENSION [4, 7]: 56.1 mN/m

CCCCCCCCNC[C@H](O)[C@@H](O)[C@@H](O)[C@H](O)C(=O)O [Compound 33, N-octyl-D-galacturonic acid amine, reference compound]
solubility in H2O [1]: 1% | SOLUBILITY (H2O) ([1]; Table E5): 1% | Solubility [1]: 1% | FOAM ([3]; Table E5, pH not given): − | CMC (%) ([4]; Table E5): 1% | SURFACE TENSION [4, 5]: 45.1 mN/m

1-(N-(decanoic acid))-L-arabinonamide [Compound 06]
foaming behaviour / foam creation, in words [3]: does not create foam

CCCCNC[C@H](O)[C@@H](O)[C@@H](O)CO [Compound 26, N-butyl-L-arabinamine, reference compound]
SOLUBILITY (H2O) ([1]; Table E4): 6.67% | FOAM ([3]; Table E4, pH not given): − | CMC (%) ([4]; Table E4): 2% | SURFACE TENSION [4, 7]: 45.8 mN/m

CCCCCCCCCCNC(=O)[C@H](O)[C@@H](O)[C@@H](O)[C@H](O)C(=O)O [Compound 12]
solubility in water, in words [1]: relatively low | SOLUBILITY (H2O) [1, 8]: <1% | FOAM ([3]; Table E2): ++

CCCCCCCC(C)NC[C@H](O)[C@@H](O)[C@@H](O)[C@H](O)C(=O)O (stereo partly drawn) [Compound 35, N-(1-methyloctyl)-D-galacturonic acid amine]
SOLUBILITY (H2O) ([1]; Table E5): 0.9% | FOAM ([3]; Table E5, pH not given): −

CCCCCCCCCCN(C)C[C@@H](O)[C@@H](O)[C@H](O)CO [Compound 24b, N-methyl-N-decyl-L-arabinamine]
Solubility [1]: 0.1% | Foamability (mL) after (min) 1 [2]: 3 mL | Foamability (mL) after (min) 5 [2]: 3 mL | Foamability (mL) after (min) 10 [2]: 2 mL | CMC (%) ([4]; Table E5.2): 0.2% | Surface tension (nM/m) ([4]; Table E5.2): 33.7 mN/m

CCCCCCCCNC(=O)[C@H](O)[C@@H](O)[C@@H](O)[C@H](O)C(=O)O [Compound 11]
solubility in H2O [1]: 2% | SOLUBILITY (H2O) [1, 8]: ~2.0% | foam stability compared with SLES [3]: quite similar | foaming behaviour / foam creation, in words [3]: Foam appears | FOAM ([3]; Table E2): ++ | SURFACE TENSION [4]: 26 mN/m | concentration at which the surface tension is reached [4]: 0.29% | CMC (%) ([4]; Table E2): 0.17% | SURFACE TENSION [4, 9]: 26.0 mN/m

CCCCCCCCNC[C@H](O)[C@@H](O)[C@@H](O)CO [Compound 28, N-octyl-L-arabinamine, reference compound]
FOAM ([3]; Table E4, pH not given): −

CCCCCCNC[C@H](O)[C@@H](O)[C@@H](O)CO [Compound 27, N-hexyl-L-arabinamine, reference compound]
SOLUBILITY (H2O) ([1]; Table E4): 0.75% | Solubility [1]: 0.75% | FOAM ([3]; Table E4, pH not given): − | CMC (%) ([4]; Table E4): 0.5% | SURFACE TENSION [4, 7]: 30.3 mN/m
